The source of these data is US5204311A, “Ethanediimidic acid bis[(arylalkylidene)hydrazide] color-formers” (Minnesota Mining and Manufacturing Company, priority 1991, dated 1993).

Holding throughout (assay type): physicochemical
Data set [1] in a line: Color of coated CB sheet before imaging. The settings on record: encapsulated, before imaging (Experiments 6, 7). Here is the method: (§1) The capsule slurry (10 g) was added to 65 g of a 1.5% aqueous sodium alginate solution. The mixture was applied to a coated paper using a bar coater with a 3 mil gap. The coating was allowed to dry at room temperature.
(§2) A 2% solution of the compound 1 in the capsule fill solvent of diethyl phthalate, tributyl phosphate, and cyclohexane was encapsulated by the procedure described in Experiment 5 above. A coating mixture of 10.0 g of capsule slurry, 2.5 g of Dow-620 butadiene-styrene latex, and 62.5 g of 1.5% sodium alginate slurry was coated onto paper by the draw down procedure described above.
A 7.5% solution comprising 5.45% N-(5-octanoylamido-2-metylpentyl)dithiooxamide/N-(5-octanoylamido-4-methylpentyl)dithiooxamide (G') mixture and 2.05% N,N'-di(5-octanoylamido-2-methylpentyl)dithiooxamide/N-(5-octanoylamido-2- methylpentyl)-N'-(5-octanoylamido-4-methylpentyl)dithiooxamide/N,N'-(5-octanoylamido-2-methylpentyl)dithiooxamide (G) mixture in the fill solvent mixture of diethyl phthalate, tributyl phosphate, and cyclohexanone was encapsulated by the procedure described above. A coating mixture of 10.0 g of capsule slurry, 2.5 g of Dow 620 styrene-butadiene latex, and 62.5 g of 1.5% sodium alginate solution was coated onto paper by the draw down procedure described in Experiment 5 above. […]

The nature of data set [2]: Imaging of CB sheet with encapsulated color-former on Ni-coated CF sheet. Here is the method: A precondensate solution was prepared comprising 192 g of formalin, 0.63 g of potassium tetraborate, 72 g of urea, and 328 g of soft water. The formalin was 37% formaldehyde and was added to a 1-liter flask equipped with a stirrer and heating mantle. The potassium tetraborate and urea were then added, and the mixture was heated to 70° C. The reaction was maintained at that temperature for 2.5-3.0 hr. The reaction mixture was then diluted with the water and allowed to cool. The precondensate solution, with about 24% solids, was then ready for use in the encapsulation process.
The precondensate and fill (ethanediimidic acid bis[hydrazide] and carrier or fill solvents) were combined to make capsules according to the following procedure. Sodium chloride (29.54 g) was added to the stirred precondensate solution and the temperature of the solution was adjusted to 20° C. The fill material (215 g) was added and full agitation was begun. After 5 minutes of stirring, 10% hydrochloric acid solution was added over 5 minutes in an amount such that the final pH of the reaction mixture was about 2.8. The reaction mixture was stirred for another 12 minutes. More of the 10% hydrochloric acid solution was added over a period of 12 minutes, in an amount such that the final pH of the solution was about […]. The reaction mixture was stirred at 20° C. for 1 hr, and then at 60° C. for 1-3 hr. The acidic solution was allowed to cool and adjusted to a pH of 7 by addition of concentrated ammonium hydroxide solution (28%). The capsule slurry could then be stored for later use.
as §1, §2
A 7.5% solution comprising 5.45% N-(5-octanoylamido-2-metylpentyl)dithiooxamide/N-(5-octanoylamido-4-methylpentyl)dithiooxamide (G') mixture and 2.05% N,N'-di(5-octanoylamido-2-methylpentyl)dithiooxamide/N-(5-octanoylamido-2- methylpentyl)-N'-(5-octanoylamido-4-methylpentyl)dithiooxamide/N,N'-(5-octanoylamido-2-methylpentyl)dithiooxamide (G) mixture in the fill solvent mixture of diethyl phthalate, tributyl phosphate, and cyclohexanone was encapsulated by the procedure described above. A coating mixture of 10.0 g of capsule slurry, 2.5 g of Dow 620 styrene-butadiene latex, and 62.5 g of 1.5% sodium alginate solution was coated onto paper by the draw down procedure described in Experiment 5 above.
A blend was prepared of 10 g of the capsule slurry containing compound 1, with 10 g of capsule slurry containing 5.45% N-(5-octanoylamido-2-methylpentyl)dithiooxamide/N-(5-octanoylamido-4-methylpentyl)dithiooxamide (G') mixture and 2.05% N,N'-di(5-octanoylamido-2-methylpentyl)dithiooxamide/N-(5-octanoylamido-2- methylpentyl)-N'-(5-octanoylamido-4-methylpentyl)dithiooxamide/N,N'-di(5-octanoylamido-4-methylpentyl)dithiooxamide (G) mixture. […]

A short description of data set [3]: Volatility: transfer from simulated donor sheet to receptor sheet. The note with it: 71 ° C. overnight. The source says: The method utilized in the experiments to both define and evaluate the level of volatility was as follows. A single sheet piece of Grade #10 (20×12 cm) cheesecloth (AF & F., Item No. 588033, American Fiber and Finishing, Inc., Burlington, Mass.) was placed between a simulated donor sheet and a receptor sheet of a carbonless paper construction. The simulated donor sheet comprised a sheet of paper saturated with color-former of structure I, which was used to simulate a CB sheet with ruptured capsules. Pressure was then applied for 24 hours by placing 9 pounds of paper on top of the sheets, to simulate storage conditions of the paper packages. The formation of color on the receptor sheet, due to transfer of volatile color-former thereto, was used as an indication that the particular color-former was less than optimally desirable for carbonless paper constructions, i.e., was volatile. A compound was considered generally to be nonvolatile, within the meaning of the term as used herein to define the present invention and thus to define color-formers most acceptable for use in carbonless image transfer arrangements, if no color was formed after the simulated test was run for about 24 hours at 25° C. In some instances, if no color was formed after storage at room temperature (25° C.), successively higher temperatures were used, as for example 49° C., 60° C., and 71° C. […]

A short description of data set [4]: Stability in concentrated hydrochloric acid.
Data set [5] is described as follows: Color formation with zinc salts (zinc rosinate). The method, then: This color observed on the CF sheet was yellow. […] Solubility in a solvent blend of tributyl phosphate, diethyl phthalate and cyclohexane (capsule solvents for preparing carbonless copy-paper) was >9% by weight. Thus the ligand is eminently suitable for encapsulation. The ligand is not volatile at 71 ° C. overnight.
This color observed on the CF sheet was yellow.

Setting [6] is: encapsulated, 2% compound 1 fill, 7.5% G'/G fill, or blend of both capsule slurries (Experiment 6).

As to `CC(C)(C)c1cc(C=NN=C(N)C(N)=NN=Cc2cc(C(C)(C)C)cc(C(C)(C)C)c2O)c(O)c(C(C)(C)C)c1` [Compound 1, ethanediimidic acid bis[(3,5-di-t-butylsalicylidene)hydrazide]], the “color of coated (CB) sheet” value in data set [1] is listed as “neutral in color”. The Image Color entry in data set [2] (encapsulated (Experiment 6)) is “yellow”. Also, in data set [2] (setting [6]), the “Hunter coordinate L” value was determined as 84.0, the Hunter coordinate a is given as -2.04 and the Hunter coordinate b amounted to 31.0. In addition, in data set [3], the volatility entry is “not volatile”. Besides, the “stability in concentrated hydrochloric acid” value in data set [4] was “stable”. In data set [5], the “color formation when reacted with zinc rosinate” value is on record as “does not form color”.
